The text below walks through data of patent US11964978B2, “Modulators of STING (stimulator of interferon genes)” (PFIZER INC., priority 2021, dated 2024).

For test [1], the system named is THP-1 Lucia ISG cells (IRF-inducible Lucia luciferase reporter). Kind of test: Interferon-β induction: THP-1 ISG reporter cell line. It counts as cell-based. The following applies: THP1-Lucia ISG, 24 hours incubation, read-out: THP-1 Lucia ISG Cells IFN-β EC50. Here is the method:
Interferon-β Induction: THP-1 ISG Reporter Cell Line
THP-1 Lucia™ ISG cells (InvivoGen) express the secreted luciferase “Lucia” reporter gene under the control of an IRF-inducible composite promotor comprised of five interferon response elements. THP-1 Lucia™ ISG cells were grown in RPMI media plus 2 mM L-glutamine, 10% fetal bovine serum, and 0.5% Pen-Strep. Hygromycin B and Zeocin were present to maintain stable transfection. 10^4 cells were seeded in 96-well plates and incubated overnight 37° C., 5% CO2. 50 μL of serial diluted compounds in media (final 0.5% DMSO) was and incubated for an additional 24 hours. After incubation, the plates were centrifuged at 2000 rpm for 10 min. 50 μl of cell culture supernatant of each well was transferred to a white, opaque 96-well plate. One pouch of QUANTI-Luc™ (InvivoGen) powder was prepared in 25 mL of endotoxin-free water and 100 μL of prepared warm QUANTI-Luc solution were added to each well containing the supernatant. The luminescence signal was measured using a Perkin-Elmer Envision microplate reader. Data were normalized to “% effect” with a positive control STING agonist that was known to maximize the luciferase signal and the negative control DMSO.

Test [2] deals with phosphorylation of IRF3 in THP-1 cells (STING activation). Kind of test: Phosphorylation of IRF3: THP-1 cell ELISA. It counts as cell-based. The following applies: Homo sapiens, 3 hours incubation, read-out: THP-1 CELL P-IRF3 EC50. Here is the method:
Phosphorylation of IRF3: THP-1 cell ELISA
STING activation results in recruitment of TBK1 and phosphorylation of IRF3 transcription factor before induction of type I interferons. THP-1 cells (InvivoGen) were grown in RPMI media plus 2 mM L-glutamine, 10% fetal bovine serum, and 0.5% Pen-Strep. 10^4 cells were seeded in 96-well plates and incubated overnight […]. Compounds serial diluted compounds in media (final 0.5% DMSO) were added to the cells and incubated for an additional 3 hours. After incubation, the plates were centrifuged at 2000 rpm for 5 min. The cells were then lysed in 100 μl RIPA buffer and vortexed for 30 minutes at room temperature. 25 μl of lysate was then transferred to clear polystyrene High Bind plates that had been previously coated with mouse anti-human IRF-3 capture antibody (BD Pharmigen), and allowed to incubate at 4° C. for 16 hours. The plates were then washed and incubated with rabbit anti-phospho-IRF3 detection antibody (Cell Signaling Technologies) for 1.5 hours at room temperature. Finally, an HRP-linked secondary antibody (Cell Signaling Technologies) was added for 30 min before the Glo Substrate Reagent (R&D Systems) was used generate the luminescent signal. The signal was measured using a Perkin-Elmer Envision microplate reader. Data were normalized to “% effect” with a positive control STING agonist that was known to maximize the phosphorylated IRF3 signal and the negative control was DMSO.
A general note: In an ELISA, binding on a coated surface is turned into a signal by an enzyme label.

Another test concerns the target R232-STING (Homo sapiens (Human), UniProt Q86WV6, H232R). The note with it: read-out: R232-STING SPA-IC50 Ki; STING residues 155-341, 100 nM 3H-cGAMP; KI from IC50 with Cheng-Prusoff equation.

Sequence of R232-STING (Q86WV6 155-341 H232R): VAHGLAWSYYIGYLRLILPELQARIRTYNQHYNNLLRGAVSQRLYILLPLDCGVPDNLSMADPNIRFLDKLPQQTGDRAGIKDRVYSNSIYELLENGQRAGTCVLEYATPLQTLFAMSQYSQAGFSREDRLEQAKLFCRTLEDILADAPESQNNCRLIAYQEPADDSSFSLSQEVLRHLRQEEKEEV

The term EC50 denotes the concentration needed to bring the measured effect to its halfway point. A word on the Ki: it is a measure of affinity in units of concentration, obtained from inhibition or displacement. Consider `CCn1ncc2c(-c3nc(-c4cc(C)nn4CCCOC)cn3C)nc(C(N)=O)cc21` [AIC03, 1-ethyl-4-{4-[1-(3-methoxypropyl)-3-methyl-1H-pyrazol-5-yl]-1-methyl-1H-imidazol-2-yl}-1H-pyrazolo[4,3-c]pyridine-6-carboxamide], for which the half-maximal effective concentration (EC50) was determined as 700 nM in test [1] and 650 nM in test [2]. Moreover, the Ki at R232-STING stood at 7.8 nM.
The corresponding values for `CCn1cc(-c2cc(C)nn2CCCO)nc1-c1nc(C(N)=O)cc2c1cnn2C` [AIE02, 4-{1-ethyl-4-[1-(3-hydroxypropyl)-3-methyl-1H-pyrazol-5-yl]-1H-imidazol-2-yl}-1-methyl-1H-pyrazolo[4,3-c]pyridine-6-carboxamide] are 270 nM, 200 nM and 12.7 nM.
The corresponding values for `Cc1cc(-c2cn(C)c(-c3nc(C(N)=O)cc4c3cnn4C)n2)n(CCCCCO)n1` [AIE03, 4-{4-[1-(5-hydroxypentyl)-3-methyl-1H-pyrazol-5-yl]-1-methyl-1H-imidazol-2-yl}-1-methyl-1H-pyrazolo[4,3-c]pyridine-6-carboxamide] are 310 nM, 310 nM and 10.7 nM.
With `Cc1cc(-c2cn(C)c(-c3nc(C(N)=O)cc4c3cnn4C)n2)n(CCCCO)n1` [AIE04, 4-{4-[1-(4-hydroxybutyl)-3-methyl-1H-pyrazol-5-yl]-1-methyl-1H-imidazol-2-yl}-1-methyl-1H-pyrazolo[4,3-c]pyridine-6-carboxamide], the 50% effective concentration (EC50) in test [1] came out at 740 nM; in test [2], 690 nM. In addition, the Ki at R232-STING amounted to 13.7 nM.
The corresponding values for `COCCn1nc(C)cc1-c1cn(C)c(-c2nc(C(N)=O)cc3c2cnn3C)n1` [AIF02, 4-{4-[1-(2-methoxyethyl)-3-methyl-1H-pyrazol-5-yl]-1-methyl-1H-imidazol-2-yl}-1-methyl-1H-pyrazolo[4,3-c]pyridine-6-carboxamide] are 2160 nM, 2090 nM and 54.6 nM.
For the molecule `COCCCn1nc(C)cc1-c1cn(C)c(-c2nc(C(N)=O)cc3c2cnn3C)n1` [AIF03, 4-{4-[1-(3-methoxypropyl)-3-methyl-1H-pyrazol-5-yl]-1-methyl-1H-imidazol-2-yl}-1-methyl-1H-pyrazolo[4,3-c]pyridine-6-carboxamide], the values for the EC50 in test [1] and in test [2] were 160 nM and 140 nM, respectively. Also, at R232-STING, the Ki came out at 5.7 nM.
Taken in the same sequence, the figures for `Cc1cc(-c2cn(C)c(-c3nc(C(N)=O)cc4c3cnn4C)n2)n(CC2CC2)n1` [AIF04, 4-{4-[1-(cyclopropylmethyl)-3-methyl-1H-pyrazol-5-yl]-1-methyl-1H-imidazol-2-yl}-1-methyl-1H-pyrazolo[4,3-c]pyridine-6-carboxamide] were 2380 nM, 2120 nM and 23.6 nM.
The corresponding values for `Cc1cc(-c2cn(C)c(-c3nc(C(N)=O)cc4c3cnn4C)n2)n(CC(F)(F)F)n1` [AIF06, 1-methyl-4-{1-methyl-4-[3-methyl-1-(2,2,2-trifluoroethyl)-1H-pyrazol-5-yl]-1H-imidazol-2-yl}-1H-pyrazolo[4,3-c]pyridine-6-carboxamide] are 2570 nM, 2610 nM and 18.2 nM.
The corresponding values for `CCn1nc(C)c(O)c1-c1cn(C)c(-c2nc(C(N)=O)cc3c2cnn3C)n1` [AIF07, 4-[4-(1-ethyl-4-hydroxy-3-methyl-1H-pyrazol-5-yl)-1-methyl-1H-imidazol-2-yl]-1-methyl-1H-pyrazolo[4,3-c]pyridine-6-carboxamide] are 200 nM, 310 nM and 2 nM.
With `COCCCn1nc(C)c(O)c1-c1cn(C)c(-c2nc(C(N)=O)cc3c2cnn3C)n1` [AIF10, 4-{4-[4-hydroxy-1-(3-methoxypropyl)-3-methyl-1H-pyrazol-5-yl]-1-methyl-1H-imidazol-2-yl}-1-methyl-1H-pyrazolo[4,3-c]pyridine-6-carboxamide], the results for the EC50 in test [1] and in test [2] were 30 nM and 70 nM, respectively. Moreover, on R232-STING, the Ki was found to be 1.3 nM.
The corresponding values for `CCCn1nc(C)c(O)c1-c1cn(C)c(-c2nc(C(N)=O)cc3c2cnn3C)n1` [AIF11, 4-[4-(4-hydroxy-3-methyl-1-propyl-1H-pyrazol-5-yl)-1-methyl-1H-imidazol-2-yl]-1-methyl-1H-pyrazolo[4,3-c]pyridine-6-carboxamide] are under 10 nM, 10 nM and 0.3 nM.
Taken in the same sequence, the figures for `CCn1nc(C)c(F)c1-c1cn(C)c(-c2nc(C(N)=O)cc3c2cnn3C)n1` [AIF12, 4-[4-(1-ethyl-4-fluoro-3-methyl-1H-pyrazol-5-yl)-1-methyl-1H-imidazol-2-yl]-1-methyl-1H-pyrazolo[4,3-c]pyridine-6-carboxamide] were 370 nM, 310 nM and 2.4 nM.
`CCn1cc(-c2c(O)c(C)nn2CC)nc1-c1nc(C(N)=O)cc2c1cnn2C` [AIF13, 4-[1-ethyl-4-(1-ethyl-4-hydroxy-3-methyl-1H-pyrazol-5-yl)-1H-imidazol-2-yl]-1-methyl-1H-pyrazolo[4,3-c]pyridine-6-carboxamide]: the EC50 amounted to 160 nM in test [1] and 250 nM in test [2]. Further, at R232-STING, the Ki came to 2.9 nM.
The corresponding values for `Cc1cc(-c2cn(C)c(-c3nc(C(N)=O)cc4c3cnn4C)n2)n(CCCC(F)F)n1` [AIF14, 4-{4-[1-(4,4-difluorobutyl)-3-methyl-1H-pyrazol-5-yl]-1-methyl-1H-imidazol-2-yl}-1-methyl-1H-pyrazolo[4,3-c]pyridine-6-carboxamide] are 1320 nM, 1370 nM and 28.2 nM.
For the molecule `Cc1cc(-c2cn(C)c(-c3nc(C(N)=O)cc4c3cnn4C)n2)n(CCCC#N)n1` [AIF15, 4-{4-[1-(3-cyanopropyl)-3-methyl-1H-pyrazol-5-yl]-1-methyl-1H-imidazol-2-yl}-1-methyl-1H-pyrazolo[4,3-c]pyridine-6-carboxamide], the EC50 in test [1] was determined as 1830 nM; in test [2] it was 1350 nM. The Ki at R232-STING is 46.6 nM.
On to `Cc1cc(-c2cn(C)c(-c3nc(C(N)=O)cc4c3cnn4C)n2)n(C)n1` [AIH02, 4-[4-(1,3-dimethyl-1H-pyrazol-5-yl)-1-methyl-1H-imidazol-2-yl]-1-methyl-1H-pyrazolo[4,3-c]pyridine-6-carboxamide], for which the figures for the EC50 in test [1] and in test [2] were 2560 nM and 4300 nM, respectively. In addition, at R232-STING, the Ki came to 22.7 nM.
For the molecule `CCCn1nccc1-c1cn(C)c(-c2nc(C(N)=O)cc3c2cnn3C)n1` [AIH03, 1-methyl-4-[1-methyl-4-(1-propyl-1H-pyrazol-5-yl)-1H-imidazol-2-yl]-1H-pyrazolo[4,3-c]pyridine-6-carboxamide], the concentration for a half-maximal effect (EC50) in test [1] was determined as 6260 nM; in test [2], 6580 nM. The Ki on R232-STING is 148 nM.
Turning to `Cn1cc(-c2ccnn2C)nc1-c1nc(C(N)=O)cc2c1cnn2C` [AIH04, 1-methyl-4-[1-methyl-4-(1-methyl-1H-pyrazol-5-yl)-1H-imidazol-2-yl]-1H-pyrazolo[4,3-c]pyridine-6-carboxamide], the EC50 in test [1] and in test [2] was over 10000 nM each time. In addition, the Ki at R232-STING was 151 nM.
